Legend:
[1] = tested on: MOLM-14 D835Y (endogenous FLT3 ITD and transfected FLT3 D835Y); test: MOLM-14 D835Y cell proliferation assay (CellTiter-Glo); type: cell-based; settings: Homo sapiens, MOLM-14, 72 h; 3 d growth, GMean
How it was run: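 Three-day proliferation at 37 °C/5% CO2 of FLT3-ITD MOLM-14 lines with D835Y or F691L mutation, seeded 1×10^4 per well. Compounds at eight points, top 1 μM final, 0.2% DMSO. ATP luminescence (CellTiter-Glo) gives IC50.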

c-KIT = molecular target: T1, c-KIT (Homo sapiens, UniProt P10721); test: c-KIT recombinant enzyme kinase assay (AlphaScreen); type: biochemical; settings: 100 ATP, 8 pt
T1 construct: purchased Millipore 14-559K
T1 sequence (P10721 26-976): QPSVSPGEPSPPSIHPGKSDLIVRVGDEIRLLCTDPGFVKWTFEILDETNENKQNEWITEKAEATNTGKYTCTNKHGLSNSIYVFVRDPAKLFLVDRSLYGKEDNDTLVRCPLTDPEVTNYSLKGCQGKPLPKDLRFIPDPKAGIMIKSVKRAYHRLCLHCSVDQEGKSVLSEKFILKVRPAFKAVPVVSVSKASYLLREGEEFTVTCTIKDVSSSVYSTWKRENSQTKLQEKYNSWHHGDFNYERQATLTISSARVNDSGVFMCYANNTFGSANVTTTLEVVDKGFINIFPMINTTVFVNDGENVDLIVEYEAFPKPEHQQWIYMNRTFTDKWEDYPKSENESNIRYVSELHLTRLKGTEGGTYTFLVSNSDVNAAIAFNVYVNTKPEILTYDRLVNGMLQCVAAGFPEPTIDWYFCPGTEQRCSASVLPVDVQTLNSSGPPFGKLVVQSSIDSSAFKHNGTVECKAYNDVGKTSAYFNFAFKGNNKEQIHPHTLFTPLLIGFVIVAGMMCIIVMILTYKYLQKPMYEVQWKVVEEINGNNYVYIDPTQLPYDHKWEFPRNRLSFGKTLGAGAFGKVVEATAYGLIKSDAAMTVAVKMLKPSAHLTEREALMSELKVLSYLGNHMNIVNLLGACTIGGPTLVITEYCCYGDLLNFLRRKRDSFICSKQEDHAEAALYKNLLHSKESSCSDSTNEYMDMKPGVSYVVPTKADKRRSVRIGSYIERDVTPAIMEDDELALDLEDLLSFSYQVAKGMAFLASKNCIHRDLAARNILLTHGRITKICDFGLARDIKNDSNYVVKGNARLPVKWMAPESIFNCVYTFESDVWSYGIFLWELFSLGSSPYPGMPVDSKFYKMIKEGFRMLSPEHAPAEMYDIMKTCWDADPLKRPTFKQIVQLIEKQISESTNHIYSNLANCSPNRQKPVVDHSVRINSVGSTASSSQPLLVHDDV
How it was run: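 IC50 values come from AlphaScreen proximity signal: phosphorylated biotin-poly(Glu4-Tyr) (30 nM) bridges streptavidin donor and anti-phosphotyrosine PY20 acceptor beads. Enzyme reactions ran at 100 μM ATP for c-KIT versus 10 μM for both FLT3 mutants (ITD, D835Y); beads added in stop buffer, room temperature.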

Row | IC50 [1] [µM] | IC50 (c-KIT) [µM] | Structure (SMILES)
1 | 0.0001 to 10 | 0.0001 to 10 | Cc1nn(C)cc1Nc1ncc(-c2ccc(CC(=O)Nc3cnc(C)c(C(F)(F)F)c3)c(F)c2)cn1 [Compound P-0077, 2-[4-[2-[(1,3-dimethylpyrazol-4-yl)amino]pyrimidin-5-yl]-2-fluoro-phenyl]-N-[6-methyl-5-(trifluoromethyl)-3-pyridyl]acetamide]
2 | 0.0001 to 10 | 0.0001 to 10 | CCC(=O)c1c[nH]c2ncc(-c3ccc(CC(=O)Nc4cnc(C)c(C(F)(F)F)c4)c(F)c3)cc12 [Compound P-0070, 2-[2-fluoro-4-(3-propanoyl-1H-pyrrolo[2,3-b]pyridin-5-yl)phenyl]-N-[6-methyl-5-(trifluoromethyl)-3-pyridyl]acetamide]
3 | 0.0001 to 10 | 0.0001 to 10 | Cc1ncc(NC(=O)Cc2ccc(-c3cnc4[nH]cc(Cl)c4n3)cc2)cc1C(F)(F)F [Compound P-0079, 2-(4-(7-chloro-5H-pyrrolo[2,3-b]pyrazin-2-yl)phenyl)-N-(6-methyl-5-(trifluoromethyl)pyridin-3-yl)acetamide]
4 | 0.0001 to 10 | 0.0001 to 10 | Cn1cc(Nc2ncc(-c3ccc(CC(=O)NCc4ccc(C(F)(F)F)nc4)c(F)c3)cn2)cn1 [Compound P-0087, 2-[2-fluoro-4-[2-[(1-methylpyrazol-4-yl)amino]pyrimidin-5-yl]phenyl]-N-[[6-(trifluoromethyl)-3-pyridyl]methyl]acetamide]
5 | 0.0001 to 10 | 0.0001 to 10 | COc1cncc(NC(=O)Cc2ccc(-c3cnc(Nc4cnn(C)c4)nc3)cc2F)c1 [Compound P-0086, 2-[2-fluoro-4-[2-[(1-methylpyrazol-4-yl)amino]pyrimidin-5-yl]phenyl]-N-(5-methoxy-3-pyridyl)acetamide]
6 | 0.0001 to 10 | 0.0001 to 10 | O=C(Cc1ccc(-c2cnc3[nH]nc(C4CC4)c3c2)cc1)Nc1cncc(C(F)(F)F)c1 [Compound P-0073, 2-[4-(3-cyclopropyl-1H-pyrazolo[3,4-b]pyridin-5-yl)phenyl]-N-[5-(trifluoromethyl)-3-pyridyl]acetamide]
7 | 0.0001 to 10 | 0.0001 to 10 | CCC(=O)c1c[nH]c2ncc(-c3ccc(CC(=O)Nc4cncc(C(F)(F)F)c4)c(F)c3)cc12 [Compound P-0068, 2-[2-fluoro-4-(3-propanoyl-1H-pyrrolo[2,3-b]pyridin-5-yl)phenyl]-N-[5-(trifluoromethyl)-3-pyridyl]acetamide]
8 | 0.0001 to 10 | 0.0001 to 10 | Cn1cnc(Nc2ncc(-c3cc(F)c(CC(=O)Nc4cncc(C(F)(F)F)c4)cc3F)cn2)c1 [Compound P-0078, 2-(2,5-difluoro-4-(2-((1-methyl-1H-imidazol-4-yl)amino)pyrimidin-5-yl)phenyl)-N-(5-(trifluoromethyl)pyridin-3-yl)acetamide]
9 | 0.0001 to 10 | 0.0001 to 10 | Cn1cc(Nc2ncc(-c3ccc(CC(=O)Nc4cncc(C(C)(F)F)c4)c(F)c3)cn2)cn1 [Compound P-0090, N-[5-(1,1-difluoroethyl)-3-pyridyl]-2-[2-fluoro-4-[2-[(1-methylpyrazol-4-yl)amino]pyrimidin-5-yl]phenyl]acetamide]
10 | 0.0001 to 10 | 0.0001 to 10 | Cn1cc(Nc2ncc(-c3ccc(CC(=O)Nc4cc(C(F)(F)F)ccn4)c(F)c3)cn2)cn1 [Compound P-0082, 2-[2-fluoro-4-[2-[(1-methylpyrazol-4-yl)amino]pyrimidin-5-yl]phenyl]-N-[4-(trifluoromethyl)-2-pyridyl]acetamide]
11 | 0.0001 to 10 | 0.0001 to 10 | O=C(Cc1ccc(-c2cnc3[nH]nc(C4CC4)c3c2)cc1F)Nc1cncc(C(F)(F)F)c1 [Compound P-0072, 2-[4-(3-cyclopropyl-1H-pyrazolo[3,4-b]pyridin-5-yl)-2-fluoro-phenyl]-N-[5-(trifluoromethyl)-3-pyridyl]acetamide]
12 | 0.0001 to 10 | 0.0001 to 10 | O=C(Cc1ccc(-c2cnc(Nc3cnn4ccccc34)nc2)c(F)c1)Nc1cncc(C(F)(F)F)c1 [Compound P-0071, 2-[3-fluoro-4-[2-(pyrazolo[1,5-a]pyridin-3-ylamino)pyrimidin-5-yl]phenyl]-N-[5-(trifluoromethyl)-3-pyridyl]acetamide]
13 | 0.0001 to 10 | 0.0001 to 10 | Cn1cc(Nc2ncc(-c3ccc(CC(=O)Nc4cncc(C(F)(F)F)c4)c(F)c3)cn2)cn1 [Compound P-0084, 2-[2-fluoro-4-[2-[(1-methylpyrazol-4-yl)amino]pyrimidin-5-yl]phenyl]-N-[5-(trifluoromethyl)-3-pyridyl]acetamide]
14 | 0.0001 to 10 | 0.0001 to 10 | Cc1ncc(NC(=O)Cc2ccc(-c3cnc4[nH]nc(C5CC5)c4c3)cc2F)cc1C(F)(F)F [Compound P-0066, 2-(4-(3-cyclopropyl-1H-pyrazolo[3,4-b]pyridin-5-yl)-2-fluorophenyl)-N-(6-methyl-5-(trifluoromethyl)pyridin-3-yl)acetamide]

More lines, now with the values behind:

Row | Structure (SMILES) | IC50 [1] [µM] | IC50 (c-KIT) [µM]
15 | O=C(Cc1ccc(-c2cnc3[nH]cc(F)c3c2)cc1F)Nc1cc(Cl)c(C2CC2)cn1 [Compound P-0044, N-(4-chloro-5-cyclopropyl-2-pyridyl)-2-[2-fluoro-4-(3-fluoro-1H-pyrrolo[2,3-b]pyridin-5-yl)phenyl]acetamide] | 0.0001 to 10 | 0.0001 to 10
16 | O=C(Cc1ccc(-c2cnc(Nc3cnn4ccccc34)nc2)cc1F)Nc1ccnc(C(F)(F)F)c1 [Compound P-0033, 2-[2-fluoro-4-[2-(pyrazolo[1,5-a]pyridin-3-ylamino)pyrimidin-5-yl]phenyl]-N-[2-(trifluoromethyl)-4-pyridyl]acetamide] | 0.0001 to 10 | 0.0001 to 10
17 | COc1ncc(NC(=O)Cc2ccc(-c3cnc4[nH]cc(C(C)=O)c4c3)cc2F)cc1C(F)(F)F [Compound P-0035, 2-[4-(3-acetyl-1H-pyrrolo[2,3-b]pyridin-5-yl)-2-fluoro-phenyl]-N-[6-methoxy-5-(trifluoromethyl)-3-pyridyl]acetamide] | 0.0001 to 10 | 0.0001 to 10
18 | COc1ncc(NC(=O)Cc2ccc(-c3cnc(Nc4cnn5ccccc45)nc3)cc2F)cc1C(F)(F)F [Compound P-0037, 2-[2-fluoro-4-[2-(pyrazolo[1,5-a]pyridin-3-ylamino)pyrimidin-5-yl]phenyl]-N-[6-methoxy-5-(trifluoromethyl)-3-pyridyl]acetamide] | 0.0001 to 10 | 0.0001 to 10
19 | O=C(Cc1ccc(-c2cnc(Nc3cnn(C(F)F)c3)nc2)c(F)c1)Nc1cc(C(F)(F)F)ccn1 [Compound P-0024, 2-[4-[2-[[1-(difluoromethyl)pyrazol-4-yl]amino]pyrimidin-5-yl]-3-fluoro-phenyl]-N-[4-(trifluoromethyl)-2-pyridyl]acetamide] | 0.0001 to 10 | 0.0001 to 10
20 | COc1ncc(NC(=O)Cc2ccc(-c3cnc4[nH]cc(F)c4c3)cc2F)cc1C(F)(F)F [Compound P-0034, 2-[2-fluoro-4-(3-fluoro-1H-pyrrolo[2,3-b]pyridin-5-yl)phenyl]-N-[6-methoxy-5-(trifluoromethyl)-3-pyridyl]acetamide] | 0.0001 to 10 | 0.0001 to 10
21 | COc1ncc(NC(=O)Cc2ccc(-c3cnc4[nH]cc(Cl)c4n3)cc2F)cc1C(F)(F)F [Compound P-0047, 2-[4-(7-chloro-5H-pyrrolo[2,3-b]pyrazin-2-yl)-2-fluoro-phenyl]-N-[6-methoxy-5-(trifluoromethyl)-3-pyridyl]acetamide] | 0.0001 to 10 | 0.0001 to 10
22 | Cc1ncc(NC(=O)Cc2ccc(-c3cnc4[nH]cc(Cl)c4n3)cc2F)cc1C(F)(F)F [Compound P-0059, 2-[4-(7-chloro-5H-pyrrolo[2,3-b]pyrazin-2-yl)-2-fluoro-phenyl]-N-[6-methyl-5-(trifluoromethyl)-3-pyridyl]acetamide] | 0.0001 to 10 | 0.0001 to 10
23 | Cn1cnc(Nc2ncc(-c3ccc(CC(=O)Nc4cncc(C(F)(F)F)c4)c(F)c3)cn2)c1 [Compound P-0052, 2-[2-fluoro-4-[2-[(1-methylimidazol-4-yl)amino]pyrimidin-5-yl]phenyl]-N-[5-(trifluoromethyl)-3-pyridyl]acetamide] | 0.0001 to 10 | 0.0001 to 10
24 | COc1nn(C[C@H](C)O)cc1Nc1ncc(-c2ccc(CC(=O)Nc3cncc(C(F)(F)F)c3)c(F)c2)cn1 [Compound P-0050, 2-[2-fluoro-4-[2-[[1-[(2S)-2-hydroxypropyl]-3-methoxy-pyrazol-4-yl]amino]pyrimidin-5-yl]phenyl]-N-[5-(trifluoromethyl)-3-pyridyl]acetamide] | 0.0001 to 10 | 0.0001 to 10
25 | Cc1ncc(NC(=O)Cc2ccc(-c3cnc4[nH]cc(F)c4c3)cc2F)cc1C(F)(F)F [Compound P-0062, 2-[2-fluoro-4-(3-fluoro-1H-pyrrolo[2,3-b]pyridin-5-yl)phenyl]-N-[6-methyl-5-(trifluoromethyl)-3-pyridyl]acetamide] | 0.0001 to 10 | 0.0001 to 10
26 | O=C(Cc1ccc(-c2cnc3[nH]cc(F)c3c2)cc1F)Nc1cncc(C(F)(F)F)c1 [Compound P-0053, 2-[2-fluoro-4-(3-fluoro-1H-pyrrolo[2,3-b]pyridin-5-yl)phenyl]-N-[5-(trifluoromethyl)-3-pyridyl]acetamide] | 0.0001 to 10 | 0.0001 to 10
27 | COc1ncc(NC(=O)Cc2ccc(-c3cnc4[nH]cc(C(=O)C5CC5)c4c3)cc2F)cc1C(F)(F)F [Compound P-0036, 2-[4-[3-(cyclopropanecarbonyl)-1H-pyrrolo[2,3-b]pyridin-5-yl]-2-fluoro-phenyl]-N-[6-methoxy-5-(trifluoromethyl)-3-pyridyl]acetamide] | 0.0001 to 10 | 0.0001 to 10
